Patent US9839642B2, “Beta-tetrazolyl-propionic acids as metallo-beta-lactamase inhibitors” (priority 2014, dated 2017)
Where two headings read alike, the source gives them in different places.

Columns and labels:
[1] = tested on: Klebsiella pneumoniae expressing VIM-1 (IHMA599644); assay: Antibiotic potentiation activity: synergistic concentration (MITC95) with imipenem, growth by OD600; type: cell-based
Summary of the method: (§1)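 MITC95 = lowest inhibitor concentration giving 95% growth inhibition, read by absorbance after 22–24 h at 35° C. Compound range 200 μM to 0.195 μM, imipenem fixed at 1 or 4 μg/ml, bacteria in 1.1×CAMHB from saline suspension diluted 1:100.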

[2] = tested on: Serratia marcescens expressing IMP-1 (CL5741); assay: as above; type: cell-based
Summary of the method: as §1

[3] = tested on: Escherichia coli expressing NDM-1 (CLB30016); assay: as above; type: cell-based
Summary of the method: as §1

VIM-1 = VIM-1 (Pseudomonas aeruginosa, UniProt A0A0F7KYQ8); assay: Enzyme activity: determination of IC50, fluorescence assay with CCF2-FA substrate; type: biochemical; conditions: CCF2-FA 1.25 μM, 2 hours at 25° C., read-out: VIM1 IC50
Summary of the method: (§2)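 In pH 7 phosphate buffer (100 mM) with 10 μM ZnSO4 and 0.005% Tween-20, CCF2-FA substrate (1.25 μM final) was hydrolysed for 2 h at 25 °C by NDM-1, IMP-1 or VIM-1 at 1, 2 or 30 pM in the presence of inhibitor at 20–0.00063 μM. Emission 460 nm/excitation 405 nm; 4-parameter curve fit gave IC50.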

IMP-1 = IMP-1 (Serratia marcescens, UniProt P52699); assay: as above; type: biochemical; conditions: CCF2-FA 1.25 μM, 2 hours at 25° C., read-out: IMP1 IC50
Summary of the method: as §2

NDM-1 = NDM-1 (Klebsiella pneumoniae, UniProt C7C422); assay: as above; type: biochemical; conditions: CCF2-FA 1.25 μM, 2 hours at 25° C., read-out: NDM1 IC50
Summary of the method: as §2

[4] = 95% inhibition of bacterial growth, strain IHMA599644
[5] = 95% inhibition of bacterial growth, strain CL5741
[6] = 95% inhibition of bacterial growth, strain CLB30016
[7] = K. pneumoniae IHMA599644 (VIM-1), 95% inhibition of growth
[8] = S. marcescens CL5741 (IMP-1), 95% inhibition of growth
[9] = E. coli CLB30016 (NDM-1), 95% inhibition of growth

Sequence of NDM-1 (C7C422 29-270, looked up, species assumed): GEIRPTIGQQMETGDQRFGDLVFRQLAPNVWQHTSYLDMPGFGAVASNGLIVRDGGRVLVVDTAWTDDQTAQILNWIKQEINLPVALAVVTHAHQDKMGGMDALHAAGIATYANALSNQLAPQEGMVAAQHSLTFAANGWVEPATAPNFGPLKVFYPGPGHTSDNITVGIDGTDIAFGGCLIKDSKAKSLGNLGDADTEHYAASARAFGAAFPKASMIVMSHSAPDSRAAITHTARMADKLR
Sequence of IMP-1 (P52699 19-246, looked up, species assumed): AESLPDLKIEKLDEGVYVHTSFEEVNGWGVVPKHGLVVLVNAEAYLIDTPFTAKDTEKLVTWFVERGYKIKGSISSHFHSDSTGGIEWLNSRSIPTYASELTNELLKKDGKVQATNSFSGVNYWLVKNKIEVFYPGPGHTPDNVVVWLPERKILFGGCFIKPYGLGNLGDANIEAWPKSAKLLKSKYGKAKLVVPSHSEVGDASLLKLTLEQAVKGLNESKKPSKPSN

Row | Compound | VIM1 KP599644 MITC95 [1, 4] [µM] | IMP1 SM5741 MITC95 [2, 5] [µM] | NDM1 EC30016 MITC95 [3, 6] [µM] | IC50 (VIM-1; enzyme 30 pM) [nM] | IC50 (IMP-1; enzyme 2 pM) [nM] | IC50 (NDM-1; enzyme 1 pM) [nM] | VIM1 KP599644 MITC95 [1, 7] [µM] | IMP1 SM5741 MITC95 [2, 8] [µM] | NDM1 EC30016 MITC95 [3, 9] [µM] | IC50 (VIM-1; VIM-1 enzyme 30 pM) [nM] | IC50 (IMP-1; IMP-1 enzyme 2 pM) [nM] | IC50 (NDM-1; NDM-1 enzyme 1 pM) [nM]
1 | CCC[C@H](C(=O)O)[C@H](Cc1ccc(-c2ccc3[nH]ncc3c2)cn1)c1nnn[nH]1 [Example 168, (2S)-2-[(1S)-2-[5-(1H-indazol-5-yl)pyridin-2-yl]-1-(1H-tetrazol-5-yl)ethyl]pentanoic acid] | >200 | 200 | 25 | 53 | 3000 | 100 | – | – | – | – | – | –
2 | CCC[C@H](C(=O)O)[C@H](Cc1cnc(SC)nc1)c1nnn[nH]1 [Example 285, (S)-2-((S)-2-(2-(methylthio)pyrimidin-5-yl)-1-(1H-tetrazol-5-yl)ethyl)pentanoic acid] | – | – | – | – | – | – | 25 | >200 | 25 | 3.3 | 14000 | 190
3 | CC(C)[C@H](C(=O)O)[C@H](Cc1ccc(N[C@@H]2CCNC2)nc1)c1nnn[nH]1 [Example 124, (2S,3S)-2-isopropyl-4-(6-((R)-pyrrolidin-3-ylamino)pyridin-3-yl)-3-(1H-tetrazol-5-yl)butanoic acid] | 50 | 100 | 4.7 | 59 | 15000 | 540 | – | – | – | – | – | –
4 | CCC[C@H](C(=O)O)[C@H](Cc1cccc(-c2ccc(C3CCNCC3)cc2)c1)c1nn[nH]n1 [Example 350, (2S)-2-[(1S)-2-(4′-piperidin-4-ylbiphenyl-3-yl)-1-(2H-tetrazol-5-yl)ethyl]pentanoic acid] | – | – | – | – | – | – | 25 | 6.2 | 25 | 3 | 380 | 26
5 | CC(C)C[C@H](C(=O)O)[C@H](Cc1ccc(NCCC(N)C(F)(F)F)nc1)c1nnn[nH]1 (stereo partly drawn) [Example 320, (2S)-2-[(1S)-2-{6-[(3-amino-4,4,4-trifluorobutyl)amino]pyridin-3-yl}-1-(1H-tetrazol-5-yl)ethyl]-4-methylpentanoic acid] | – | – | – | – | – | – | 50 | 12.5 | 1.6 | 15 | 320 | 83
6 | Nc1ccc(C[C@H](c2nnn[nH]2)[C@@H](C(=O)O)C2CCCC2)cn1 [Example 122, (2S,3S)-4-(6-aminopyridin-3-yl)-2-cyclopentyl-3-(1H-tetrazol-5-yl)butanoic acid] | 6.2 | 12.5 | 0.39 | 1.4 | 620 | 39 | – | – | – | – | – | –
7 | Cc1ccc(C[C@H](c2nn[nH]n2)[C@H](CC(C)C)C(=O)O)cc1 [Example 53, (S)-2-((S)-1-(2H-tetrazol-5-yl)-2-(p-tolyl)ethyl)-4-methylpentanoic acid] | 75 | 4.7 | 18.8 | 5.8 | 89 | 37 | – | – | – | – | – | –
8 | CCC[C@H](C(=O)O)[C@H](Cc1ccc(OCCN)nc1)c1nnn[nH]1 [Example 130, (S)-2-((S)-2-(6-(2-aminoethoxy)pyridin-3-yl)-1-(1H-tetrazol-5-yl)ethyl)pentanoic acid] | 18.8 | 50 | 4.7 | 8.3 | 8400 | 900 | – | – | – | – | – | –
9 | CCC[C@H](C(=O)O)[C@H](Cc1cccc(-c2ccc(N)nc2)c1)c1nn[nH]n1 [Example 342, (2S)-2-[(1S)-2-[3-(6-aminopyridin-3-yl)phenyl]-1-(2H-tetrazol-5-yl)ethyl]pentanoic acid] | – | – | – | – | – | – | 12.5 | 3.1 | 6.2 | 1.1 | 170 | 4.7
10 | CC(C)C[C@H](C(=O)O)[C@H](Cc1ccc(COC2CCNCC2)c(F)c1)c1nn[nH]n1.O=C(O)C(F)(F)F [Example 447, 4-((4-((2S,3S)-3-carboxy-5-methyl-2-(2H-tetrazol-5-yl)hexyl)-2-fluorobenzyl)oxy)piperidin-1-ium 2,2,2-trifluoroacetate] | – | – | – | – | – | – | 25 | 6.25 | 9.375 | 6.35 | 163 | 104
11 | CC(C)[C@H](C(=O)O)[C@H](CC1CCNCC1)c1nnn[nH]1 [Example 89, (2S,3S)-2-isopropyl-4-(piperidin-4-yl)-3-(1H-tetrazol-5-yl)butanoic acid] | 37.5 | >200 | 18.8 | 2100 | > 20000 | 18000 | – | – | – | – | – | –
12 | CC(C)(C)[C@H](C(=O)O)[C@H](Cc1ccc(C2CCNC2)cc1)c1nnn[nH]1.O=C(O)C(F)(F)F (stereo partly drawn) [Example 431, 3-(4-((2S,3R)-3-carboxy-4,4-dimethyl-2-(1H-tetrazol-5-yl)pentyl)phenyl)pyrrolidin-1-ium 2,2,2-trifluoroacetate] | – | – | – | – | – | – | 12.5 | 2.344 | 6.25 | 16.6 | 32.4 | 71.7
13 | CC(C)C[C@H](C(=O)O)[C@H](Cc1cc(Cl)nc(NCCO)c1)c1nnn[nH]1 [Example 407] | – | – | – | – | – | – | 50 | 75 | 18.75 | 2.22 | 923 | 34.4
14 | CCC[C@H](C(=O)O)[C@H](Cc1ccc(F)cc1F)c1nnn[nH]1 [Example 262, (2S)-2-[(1S)-2-(2,4-difluorophenyl)-1-(1H-tetrazol-5-yl)ethyl]pentanoic acid] | – | – | – | – | – | – | 12.5 | 18.8 | 6.2 | 3.1 | 1300 | 70
15 | CC(C)C[C@H](C(=O)O)[C@H](Cc1ccc(CN2CCC(N)CC2)c(F)c1)c1nn[nH]n1.O=C(O)C(F)(F)F [Example 444, 1-(4-((2S,3S)-3-carboxy-5-methyl-2-(2H-tetrazol-5-yl)hexyl)-2-fluorobenzyl)piperidin-4-aminium 2,2,2-trifluoroacetate] | – | – | – | – | – | – | 25 | 12.5 | 9.375 | 76.5 | 216 | 82.9
16 | CC(C)C[C@H](C(=O)O)[C@H](Cc1ccc(CN)c(F)c1)c1nnn[nH]1 [Example 56, (S)-2-((S)-2-(4-(aminomethyl)-3-fluorophenyl)-1-(1H-tetrazol-5-yl)ethyl)-4-methylpentanoic acid] | 18.8 | 47 | 9.4 | 10 | 1700 | 520 | – | – | – | – | – | –
17 | CC(C)[C@H](C(=O)O)[C@H](Cc1ccc(NCCO)cn1)c1nnn[nH]1 [Example 139, (2S,3S)-4-(5-((2-hydroxyethyl)amino)pyridin-2-yl)-2-isopropyl-3-(1H-tetrazol-5-yl)butanoic acid] | 12.5 | 38 | 0.39 | 34 | 1900 | 56 | – | – | – | – | – | –
18 | CC(C)(C)C(C(=O)O)[C@H](Cc1ccc(Br)s1)c1nnn[nH]1 (stereo partly drawn) [Example 426, (3S)-4-(5-bromothiophen-2-yl)-2-(tert-butyl)-3-(1H-tetrazol-5-yl)butanoic acid] | – | – | – | – | – | – | 150 | 2.344 | 12.5 | 49.5 | 27.9 | 142
19 | CCC[C@H](C(=O)O)[C@H](Cc1ccc(C2CCNC2)nc1)c1nnn[nH]1 (stereo partly drawn) [Example 409, (2S)-2-((1S)-2-(6-(pyrrolidin-3-yl)pyridin-3-yl)-1-(1H-tetrazol-5-yl)ethyl)pentanoic acid] | – | – | – | – | – | – | 25 | 200 | 12.5 | 14 | 19800 | 810
20 | CCC[C@H](C(=O)O)[C@H](Cc1csc(N)n1)c1nnn[nH]1 [Example 150, 4-((2S,3S)-3-carboxy-2-(1H-tetrazol-5-yl)hexyl)thiazol-2-aminium] | 25 | >200 | 1.6 | 300 | > 20000 | 480 | – | – | – | – | – | –
